# Test results from patent publication US6573271B2, “Method of preventing proliferation of retinal pigment epithelium by retinoic acid receptor agonists” (John Hopkins University School of Medicine, priority 1995, dated 2003).
# Assays:
# [1] = tested on: traction retinal detachment in rabbits; test: Traction retinal detachment in rabbits after human RPE cells, intravitreal injection of 168 and 299; type: in vivo, rabbit
# [2] = tested on: traction retinal detachment in rabbits; test: Traction retinal detachment in rabbits after human RPE cells, subconjunctival injection; type: in vivo, rabbit; conditions: subconjunctival 0.3 mg once a day for five days
# Description: Due to the toxicity of certain RAR agonists and because the effects of retinoids are delayed in onset and reversible, methods for sustained release of the retinoids were investigated. […] The therapeutic effect of the RAR specific agonists was greater than that of RA, which is an agonist for both RXRs and RARs. There were no signs of any toxicity to the retina.
# [3] = tested on: traction retinal detachment in rabbits; test: Traction retinal detachment in rabbits after human dermal fibroblasts, subconjunctival lipid microvesicles; type: in vivo, rabbit; conditions: for % Any RD / % Total RD / RD at 7 Days, Partial / RD at 7 Days, Total / RD at 14 Days, Partial / RD at 14 Days, Total / RD at 28 Days, Partial / RD at 28 Days, Total: human dermal fibroblasts
# [4] = tested on: traction retinal detachment in rabbits; test: Traction retinal detachment in rabbits after human dermal fibroblasts, subconjunctival injection
# [5] = tested on: traction retinal detachment in rabbits; test: Traction retinal detachment in rabbits after human dermal fibroblasts, intravitreous lipid microvesicles; conditions: for % Any RD / % Total RD / RD at 7 Days, Partial / RD at 7 Days, Total / RD at 14 Days, Partial / RD at 14 Days, Total / RD at 28 Days, Partial / RD at 28 Days, Total: human dermal fibroblasts
# Description: In this experiment the retinoid was incorporated into lipid microvesicles utilizing standard techniques.
# [6] = tested on: human RPE cells; test: [3H]thymidine incorporation / proliferation of cultured human RPE cells; conditions: for effect on RPE cell proliferation, agent alone: FIG. 3, alone
# Description: Primary cultures of human retinal pigment epithelium (RPE) cells were established from eyes obtained from the Old Dominion Eye Bank (Richmond, Va.) or the Eye Bank of Maryland (Baltimore, Md.) using the technique described in P. A. Campochiaro, et al., Invest.
# For [3H]thymidine incorporation, RPE cells at passage 3 or 4 were lightly trypsinized and plated in 16-mm wells of 24-well plates. The transfected cells were allowed to attach overnight and then the media containing 5% fetal bovine serum (FBS) were supplemented with retinoids or vehicle alone. Stock solutions (10^−3M) of retinoids were prepared in dimethylsulfoxide (DMSO) and stored as frozen aliquots until used; the highest final concentration of DMSO was 0.1% and was also used for control cultures. The media containing freshly prepared retinoids were changed every three days. At 7 or 10 days 2 μCi/ml of [^3H]thymidine (specific activity, 6.7 Ci/mM; New England Nuclear, Boston, Mass.) was added to the cultures and incorporation was measured as previously described (Leschey, supra).
# The potency of retinoid agonists for inhibition of serum stimulated DNA synthesis in human RPE cells was tested. […] The cells were shifted to serum-free media containing the same concentration of retinoid and then pulsed with 10% serum for 18 hours, after which [^3H]thymidine incorporation was measured. Thymidine incorporation for cells grown in control medium was used to calculate the percent inhibition of thymidine incorporation induced by four concentrations of each retinoid (each concentration tested in triplicate) which were then used to generate each line.
# [7] = tested on: RPE cells; test: RPE cell morphology after 10 days in retinoid; type: cell-based, human; conditions: 1 μm, 5% serum, on plastic
# [8] = tested on: rabbit cell injection model of PVR; test: Rabbit cell injection model of PVR (RPE cells), intravitreous injection of retinoids; type: in vivo; conditions: for Any RD (%) / Total RD (%): 28 Days
# Method: Briefly, pigmented rabbits were anesthetized with a subcutaneous injection of 5 mg/kg of xylazine and 25 mg/kg of ketamine, and the pupil of one eye was dilated with 2½% phenylephrine. Under direct observation 5×10^5 RPE cells were injected into the vitreous cavity just anterior to the optic nerve. […] .
# Rabbits were examined by indirect ophthalmoscopy on days 7, 14 and 28 and traction retinal detachments were graded. […] . The localized clouds decreased in size and cleared over 2 to 3 weeks. There were no visible changes in the retina. […] .
# It was felt that the hair loss and possibly the loss of appetite and death were due to systemic toxicity from drug that had gotten out of the eye. […] . None of the rabbits experienced hair loss and none died; their appetites appeared to be normal.
# [9] = tested on: retinas of the rabbits; test: Ocular toxicity after single intravitreous injection, histopathology of retina; type: in vivo, rabbit; conditions: single intravitreous injection of 100 μg, two weeks after injection
# Description: The rabbits were killed two weeks after injection.
# [10] = biological target: T1, RXRα (Homo sapiens, UniProt P19793); test: Transactivation, ER/RXR-α hybrid receptor + ERE-CAT reporter cotransfected in HeLa cells
# T1 sequence (P19793 227-458 limits assumed): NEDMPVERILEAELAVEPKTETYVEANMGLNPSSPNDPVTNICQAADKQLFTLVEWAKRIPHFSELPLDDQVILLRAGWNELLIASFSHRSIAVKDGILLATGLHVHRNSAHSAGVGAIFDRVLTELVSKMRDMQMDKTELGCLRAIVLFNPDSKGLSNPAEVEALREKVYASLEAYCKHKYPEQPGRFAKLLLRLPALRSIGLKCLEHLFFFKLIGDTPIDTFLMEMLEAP
# [11] = 50 μg, single intravitreous injection
# [12] = 100 μg intravitreous, two injections (day 1 and day 2 after cell injection)
# [13] = 100 μg intravitreous, two injections
# [14] = Homo sapiens, RPE, read-out: Percent Inhibition of [3H]thymidine incorporation in RPE cells
compound,measurement,setting,value
"CCOC(=O)c1ccc(C#Cc2ccc3c(c2)C(C)(C)CCS3)nc1 [Compound 168, ethyl 6-[2-(4,4-dimethylthiochroman-6-yl)ethynyl]nicotinate]",% Any RD,[1],80%
same,% Total RD,[1],8%
same,"RD at 7 Days, Partial",[1],1
same,"RD at 7 Days, Total",[1],0
same,"RD at 14 Days, Partial",[1],1
same,"RD at 14 Days, Total",[1],0
same,"RD at 28 Days, Partial",[1],7
same,"RD at 28 Days, Total",[1],1
same,% Any RD,[2],16%
same,% Total RD,[2],16%
same,"RD at 7 Days, Partial",[2],0
same,"RD at 7 Days, Total",[2],0
same,"RD at 14 Days, Partial",[2],0
same,"RD at 14 Days, Total",[2],0
same,"RD at 28 Days, Partial",[2],1
same,"RD at 28 Days, Total",[2],0
same,inhibition of tractional retinal detachment,[3],substantially more effective at inhibiting tractional retinal detachment
same,% Any RD,[3],33%
same,% Total RD,[3],33%
same,"RD at 7 Days, Partial",[3],0
same,"RD at 7 Days, Total",[3],0
same,"RD at 14 Days, Partial",[3],1
same,"RD at 14 Days, Total",[3],0
same,"RD at 28 Days, Partial",[3],0
same,"RD at 28 Days, Total",[3],2
same,% Any RD,[4],60%
same,% Total RD,[4],20%
same,"RD at 7 Days, Partial",[4],0
same,"RD at 7 Days, Total",[4],0
same,"RD at 14 Days, Partial",[4],0
same,"RD at 14 Days, Total",[4],0
same,"RD at 28 Days, Partial",[4],4
same,"RD at 28 Days, Total",[4],2
same,effect on retinal detachments,[4],decreased the number of retinal detachments and slowed the rate at which they developed
same,prevention of traction retinal detachment,[5],very effective in preventing traction retinal detachment
same,% Any RD,[5],29%
same,% Total RD,[5],29%
same,"RD at 7 Days, Partial",[5],0
same,"RD at 7 Days, Total",[5],0
same,"RD at 14 Days, Partial",[5],0
same,"RD at 14 Days, Total",[5],0
same,"RD at 28 Days, Partial",[5],0
same,"RD at 28 Days, Total",[5],2
"CC1=C(/C=C/C(C)=C/C=C/C(C)=C\C(=O)O)C(C)(C)CCC1 [13-cis RA, 13-cis-retinoic acid, reference compound]",IC50,"[6]; read-out: RPE 148 IC50 (50% inhibition of RPE cell growth relative to mock treated RPE cells), measured as in Example 2",0.03 µM
"C/C(=C\c1ccc(C(=O)O)cc1)c1ccc2c(c1)C(C)(C)CCC2(C)C [Compound 183, p-[(E)-2-(5,6,7,8-tetrahydro-5,5,8,8-tetramethyl-2-naphthyl)propenyl]-benzoic acid]",RPE cell morphology / cell overgrowth,[7],prevented cell overgrowth
same,Partial RD at 14 Days (number of eyes),[8]; [11],1
same,Partial RD at 28 Days (number of eyes),[8]; [11],1
same,Total RD at 14 Days (number of eyes),[8]; [11],2
same,Total RD at 28 Days (number of eyes),[8]; [11],2
same,Any RD (%),[8]; [11],33+ %
same,Total RD (%),[8]; [11],22%
same,Partial RD at 14 Days (number of eyes),[8]; [12],0
same,Partial RD at 28 Days (number of eyes),[8]; [12],0
same,Total RD at 14 Days (number of eyes),[8]; [12],0
same,Total RD at 28 Days (number of eyes),[8]; [12],0
same,Any RD (%),[8]; [13],0++ %
same,Total RD (%),[8]; [13],0%
same,frequency and severity of traction retinal detachments versus vehicle,"[8]; initial group, intravitreous injections of 100 μg",None of these rabbits developed retinal detachments
same,frequency and severity of retinal detachments versus control,[8]; single intravitreous injection one day after RPE cell injection,fewer (p(0.05) and less severe retinal detachments
same,deaths before completion of the 28 day observation period,"[8]; two intravitreous injections of 100 μg, five rabbits",two rabbits died
same,"photoreceptor degeneration, histopathology",[9],Occasional focal areas of photoreceptor degeneration were seen in one eye
same,inhibition at 0.05 µM,[6]; [14],76.7%
same,inhibition at 0.1 µM,[6]; [14],98.6%
same,inhibition at 1 µM,[6]; [14],98.8%
same,inhibition of RPE cell proliferation,[6]; comment on Table 3,effective inhibitors of RPE cell proliferation
same,EC50,[10],15 µM
"N[C@@H](Cc1cc(I)c(Oc2ccc(O)c(I)c2)c(I)c1)C(=O)O [Compound T3, reference compound]","effect on RPE cell proliferation, agent alone",[6],did not
"C=C1/C(=C\C=C2/CCC[C@]3(C)[C@@H]([C@H](C)CCCC(C)(C)O)CC[C@@H]23)C[C@@H](O)C[C@@H]1O [Compound D3, 1,25-dihydroxyvitamin D3, reference compound]","effect on RPE cell proliferation, agent alone",[6],did not
"CC1(C)CCOc2ccc(C#Cc3ccc(C(=O)O)cn3)cc21 [Compound 299, 6-[2-(4,4-dimethylchroman-6-yl)ethynyl]nicotinic acid]",% Any RD,[1],80%
same,% Total RD,[1],40%
same,"RD at 7 Days, Partial",[1],0
same,"RD at 7 Days, Total",[1],0
same,"RD at 14 Days, Partial",[1],1
same,"RD at 14 Days, Total",[1],1
same,"RD at 28 Days, Partial",[1],4
same,"RD at 28 Days, Total",[1],4
same,% Any RD,[2],0%
same,% Total RD,[2],0%
same,"RD at 7 Days, Partial",[2],0
same,"RD at 7 Days, Total",[2],0
same,"RD at 14 Days, Partial",[2],0
same,"RD at 14 Days, Total",[2],0
same,"RD at 28 Days, Partial",[2],0
same,"RD at 28 Days, Total",[2],0
same,% Any RD,[3],63%
same,% Total RD,[3],50%
same,"RD at 7 Days, Partial",[3],0
same,"RD at 7 Days, Total",[3],0
same,"RD at 14 Days, Partial",[3],0
same,"RD at 14 Days, Total",[3],1
same,"RD at 28 Days, Partial",[3],1
same,"RD at 28 Days, Total",[3],4
same,% Any RD,[4],40%
same,% Total RD,[4],0%
same,"RD at 7 Days, Partial",[4],0
same,"RD at 7 Days, Total",[4],0
same,"RD at 14 Days, Partial",[4],0
same,"RD at 14 Days, Total",[4],0
same,"RD at 28 Days, Partial",[4],4
same,"RD at 28 Days, Total",[4],0
same,effect on retinal detachments,[4],decreased the number of retinal detachments and slowed the rate at which they developed
same,prevention of traction retinal detachment,[5],not effective
same,% Any RD,[5],100%
same,% Total RD,[5],100%
same,"RD at 7 Days, Partial",[5],0
same,"RD at 7 Days, Total",[5],0
same,"RD at 14 Days, Partial",[5],0
same,"RD at 14 Days, Total",[5],0
same,"RD at 28 Days, Partial",[5],0
same,"RD at 28 Days, Total",[5],3
